In patent US20210030725A1, “RESTORATION OF TRANSMEMBRANE COPPER TRANSPORT” (The Board of Trustees of the University of Illinois, priority 2018, published 2021):

Assays:
[1] = test system: iron transporter-deficient yeast missing the FetFtr1 transport complex; assay: Growth rescue of iron transporter-deficient yeast; format: cell-based, Saccharomyces cerevisiae; details: respiratory and non-permissive copper conditions
[2] = test system: Δctr1Δctr3 yeast missing the passive copper transporters Ctr1Ctr3; assay: Growth rescue of Δctr1Δctr3 yeast; format: cell-based, Saccharomyces cerevisiae; details: respiratory and non-permissive conditions, copper dependent, maximum at intermediate hinokitiol concentrations
Method: Growth rescue in yeast was performed using 10 μM hinokitiol in SD media in a 96-well plate unless otherwise noted. Wild type and DELctr1DELctr3 yeast strain controls treated with vehicle (DMSO) or hinokitiol were performed under identical conditions using a normal iron-containing, no-copper containing SD media, supplemented with 1.0 μM CuCl2. Yeast were grown overnight in YPD media and diluted at an OD600 of 0.1 in SD media, diluted 10-fold, and incubated at 30° C. with continuous shaking (200 rpm). The OD600 was obtained 48 hours after inoculation unless otherwise noted. Small molecule dose-response with hinokitiol was determined by addition of the small molecule (40× stock solution in DMSO) to give the indicated final concentrations. Copper dose-response studies were performed in low copper SD media without CuCl2 containing the indicated concentrations of hinokitiol (from a 40× stock solution in DMSO). For dose-dependent hinokitiol-promoted rescue at increasing dosages of CuCl2, SD media was made containing the indicated concentrations of CuCl2 from 1000× CuCl2 stocks before adding hinokitiol (40× stock solution in DMSO) to give the indicated final concentrations. […]

[3] = Partitioning of chelator:copper complex between octanol and water; format: physicochemical; details: hinokitiol:copper complex
Method: Biophysical experiments were performed to better understand the capacity of hinokitiol to bind and transport copper. […] Unlike the aforementioned water-soluble copper chelators, the hinokitiol:copper complex primarily partitioned into the nonpolar solvents over water (FIG. 4A). To expand, 95% of the hinokitiol:copper complex partitioned into octanol over water as opposed to >85% of the currently available water-soluble chelators partitioned into water over octanol.

[4] = Copper (II) transport across liposomal membranes, hinokitiol vs water-soluble chelators; details: relative to controls
[5] = test system: DELccc2 yeast strain missing the intracellular ATP-driven copper pump CCC2; assay: Growth rescue of DELccc2 yeast on solid media; format: cell-based
Method: Growth rescue in yeast was performed on SD-agar plates in 50 mM MES/Tris buffer at pH=7.0 containing 2% agarose gel, and 10 μM hinokitiol (from 40× stock in DMSO). Wild type and DELccc2 yeast strain controls treated with vehicle (DMSO) were performed under identical conditions using a no-copper containing SD media supplemented with 0.5 μM CuCl2 in the absence of hinokitiol. Yeast were grown overnight in YPD media and diluted to an optical density at 600 nm (OD600) of 1.0 in low copper SD media before 10-fold serial dilution and inoculation of these yeast suspensions (10 μL per dot) onto the low copper SD-agar plates described above containing either DMSO vehicle or hinokitiol (10 μM from 40× DMSO stock). For disc diffusion assays, yeast were grown overnight in YPD media and diluted to an OD600=0.1 in low copper SD media and streaked onto low copper SD-agar plates containing 0.5 μM CuCl2. Disc diffusion assays were performed using either DMSO or 10 mM stock solutions (in DMSO) of hinokitiol on low copper SD-agar plates containing 0.5 μM CuCl2 streaked with the appropriate yeast strain (from OD600=0.1 in low copper SD media). Images were taken 48 hours after inoculation and incubation at 30° C. unless otherwise noted. […]

[6] = Hinokitiol-promoted release of divalent metals from POPC liposomes (PhenGreen assay); details: hinokitiol 10 μM
Method: Hinokitiol-promoted release of different divalent metals from POPC liposomes was performed by tracking the quenching of PhenGreen (Fisher P14312) similar to previously reported. Liposomes were prepared as described above with an internal buffer consisting of either 10 mM ascorbate in a 5 mM MES/Tris buffer at pH=7.0 (for Fe^2+), 10 mM citrate in a 5 mM MES/Tris buffer at pH=7.0 (for Cu^2+), or a 5 mM MES/Tris buffer at pH=7.0 (for Mn^2+, Co^2+, and Zn^2+). In all cases, liposomes were prepared using 5 mM of either FeCl2, MnCl2, CoCl2, NiCl2, ZnCl2, or CuCl2 added to the internal buffer. […] The fluorescence was monitored with excitation at 500 nm and emission at 530 nm over 1 hour. After one hour, the liposomes were lysed with Triton-X and the fluorescence was recorded. […] The DMSO-treated and hinokitiol-treated liposomes had similar fluorescence quenching levels after lysis. The total amount of metal efflux was determined using standard curves of fluorescence quenching in external buffer with 10 μM PhenGreen and known concentrations of each metal. The t1/2 values were calculated using an asymptotic fit in OriginPro. […] Hinokitiol (10 μM) rapidly promotes the efflux of multiple divalent metals from POPC liposomes as determined by a PhenGreen assay. […] Quantification of metal release was done by comparison of fluorescence quenching to a standard curve for each metal. […]

[7] = Stoichiometric metal competition, ICP-MS quantification of extracted hinokitiol-bound metal; format: binding; details: 1 mM each divalent metal, 1 mM hinokitiol, 10 mM Mes/Tris, 1:1 MeOH:H2O, pH 7.0, N=6
Method: Hinokitiol binds to and sequesters copper with a greater affinity than any other metal (including iron). Stoichiometric competition experiments with 1 mM of each divalent metal and 1 mM hinokitiol in a 10 mM Mes/Tris buffer in 1:1 MeOH:H2O at pH=7.0. Hinokitiol binds many metals by ICP-MS quantification of extracted hinokitiol-bound metal. The metal in the organic layer was determined to be in the order of Cu>Fe>Mn≈Zn>Co>Ni. ND=Not detected. N=6. (FIG. 2)

[8] = UV-vis titration with copper (II) chloride; format: binding
[9] = test system: DELccc2 yeast strain missing the intracellular ATP-driven copper pump CCC2; assay: Growth rescue of DELccc2 yeast in liquid culture; format: cell-based
Method: Growth rescue in yeast was performed using 10 μM hinokitiol in SD media in a 96-well plate unless otherwise noted. Wild type and DELccc2 yeast strain treated with vehicle (DMSO) or hinokitiol were performed under identical conditions using a normal iron-containing, no-copper containing SD media, this time supplemented with 1.5 or 2 μM CuCl2. Yeast were grown overnight in YPD media and diluted at an OD600 of 0.1 in SD media, diluted 10-fold, and incubated at 30° C. with continuous shaking (200 rpm). The OD600 was obtained 48 hours after inoculation unless otherwise noted. Small molecule dose-response with hinokitiol was determined by addition of the small molecule (40× stock solution in DMSO) to give the indicated final concentrations. Copper dose-response studies were performed in low copper SD media without CuCl2 containing the indicated concentrations of hinokitiol (from a 40× stock solution in DMSO). For dose-dependent hinokitiol-promoted rescue at increasing dosages of CuCl2, SD media was made containing the indicated concentrations of CuCl2 from 1000× CuCl2 stocks before adding hinokitiol (40× stock solution in DMSO) to give the indicated final concentrations. […]

CC(C)c1cccc(=O)c(O)c1 [hinokitiol, 2-hydroxy-6-propan-2-ylcyclohepta-2,4,6-trien-1-one]
restoration of yeast growth [1]: unable to restore growth
restoration of yeast growth [2]: dose-dependently restored yeast growth up to wild type control levels
share of copper complex partitioned into octanol over water [3]: 95%
copper (II) transport across liposomal membranes [4]: transported copper (II) across liposomal membranes
growth rescue [5]: Vigorous rescue
transport of MnII from liposomes [6]: unable to transport
order of metal in the organic layer (extracted hinokitiol-bound metal) [7]: Cu>Fe>Mn≈Zn>Co>Ni
copper binding (complex formation, shift in UV-vis spectra) [8]: readily binds copper
growth rescue [9]: Vigorous rescue
